Laboratory results: publication PMC9821237, “Spectroscopic Characterization and Biological Activity of Hesperetin Schiff Bases and Their Cu(II) Complexes” (International Journal of Molecular Sciences, 2023)
Where two headings read alike, the source gives them in different places. Marks after values point to notes of the source that are not given here.

Columns and labels:
HeLa cells [1] = test: Neutral comet assay, DNA double-strand breaks (DSBs); assay type: cell-based, human; details: 50 µM
Method: The ability of tested compounds (at concentration of 50 µM) to induce DNA double-strand breaks (DSBs) in model HeLa cells was evaluated by the neutral comet assay according to Błasiak et al. (2012). In this version of the comet assay electrophoresis ran in a buffer consisting of 100 mM Tris and 300 mM sodium acetate at pH 9.0 (with glacial acetic acid). Electrophoresis was conducted for 60 min, after a 20 min equilibrium period, at an electric field strength of 0.41 V/cm (50 mA) at 4 °C. The slides were then proceeded as described in the “Single-cell gel electrophoresis assay” section.

HeLa cells [2] = test: Comet assay with endonuclease III, oxidative DNA damage; assay type: cell-based, human; details: 50 µM, net damage recognised by Endo III (oxidative DNA damage)
Method: Oxidative DNA damage was evaluated with the DNA repair enzyme–endonuclease III (Endo III, New England Biolabs Inc., Germany) in model HeLa cells. The procedure was performed according to [67]. To estimate the ability of the enzyme to recognize oxidized DNA bases, the cells were incubated either with tested compounds (at concentration of 50 µM), or hydrogen peroxide (50 µM), lysed and post-treated with Endo III. After lysis slides were washed three times in an enzyme buffer (composed of 40 mM HEPES-KOH, 0.1 KCl, 0.5 mM EDTA, 0.2 mg/mL bovine serum albumin, pH 8.0) and drained, and the agarose was covered with 25 µL of either enzyme buffer or enzyme at 1 µg/mL in buffer, sealed with a cover glass and incubated for 30 min at 37°C. Further steps were described above. To determine the net value of DNA damage recognized by the enzyme, the DNA damage observed in the absence of the enzyme was subtracted from that measured in the presence of it.

LLC-PK1 cells = test: Alkaline comet assay, basal endogenous DNA damage; details: LLC-PK1, 50 µM, 1 h, mean ± S.E.M.
Caco-2 cells [3] = test: Alkaline comet assay, basal endogenous DNA damage; details: Caco-2, 50 µM, 1 h, mean ± S.E.M.
HeLa cells [4] = test: Alkaline comet assay, basal endogenous DNA damage; details: 1 h, mean ± S.E.M.
Caco-2 cells [5] = details: human, 1 h, 50 µM

Compound | Mean DNA (%) in Comet Tail (±S.E.M.) of HeLa Cells, DSBs (HeLa cells [1]) | Mean DNA (%) in Comet Tail (±S.E.M.) of HeLa Cells, Endo III (HeLa cells [2]) | DNA damage, percentage of DNA in the comet tail (LLC-PK1 cells) | DNA damage, percentage of DNA in the comet tail (Caco-2 cells [3]) | DNA damage, percentage of DNA in the comet tail (HeLa cells [4]; 1 µM) | DNA damage, percentage of DNA in the comet tail (Caco-2 cells [5]) | DNA damage, percentage of DNA in the comet tail (HeLa cells [4]; 50 µM)
COc1ccc(C2C/C(=N\NC(=O)c3ccccc3)c3c([O][Cu][O]C(C)=O)cc(O)cc3O2)cc1O (stereo not drawn) [CuHHSB, (E)-acetoxy((4-(2-benzoylhydrazono)-7-hydroxy-2-(3-hydroxy-4-methoxyphenyl)chroman-5-yl)oxy)copper] | 14.4 ± 0.7 ^a,b % | 8.3 ± 2.7 ^a % |  |  |  |  | 
COc1ccc(C2C/C(=N\NC(=O)c3ccncc3)c3c([O][Cu][O]C(C)=O)cc(O)cc3O2)cc1O (stereo not drawn) [CuHIN, (E)-acetoxy((7-hydroxy-2-(3-hydroxy-4-methoxyphenyl)-4-(2-isonicotinoylhydrazono)chroman-5-yl)oxy)copper] | 7.7 ± 3.6 ^a % | 12.2 ± 4.2 ^a % |  |  |  |  | 
COc1ccc(C2C/C(=N\NC(N)=S)c3c([O][Cu][O]C(C)=O)cc(O)cc3O2)cc1O (stereo not drawn) [CuHTSC, (E)-acetoxy((4-(2-carbamothioylhydrazono)-7-hydroxy-2-(3-hydroxy-4-methoxyphenyl)chroman-5-yl)oxy)copper] | 6.4 ± 2.3 ^a,c % | 11.6 ± 1.9 ^a % |  |  |  |  | 
COc1ccc(C2CC(=NNC(=O)c3ccccc3)c3c(O)cc(O)cc3O2)cc1O (stereo not drawn) [HHSB, N-[2,3-dihydro-5,7-dihydroxy-2-(3-hydroxy-4-methoxyphenyl)chromen-4-ylidene]benzhydrazide] |  | 7.5 ± 3.9 ^a % | 26.3% ± 4.8% | 34.0% ± 4.6% | 28.8% ± 4.1% |  | 
COc1ccc(C2CC(=NNC(=O)c3ccncc3)c3c(O)cc(O)cc3O2)cc1O (stereo not drawn) [HIN, N-[2,3-dihydro-5,7-dihydroxy-2-(3-hydroxy-4-methoxyphenyl)chromen-4-ylidene]isonicotinohydrazide] | 19.5 ± 0.7 ^a % | 5.3 ± 3.5 ^a % |  | 23.1% ± 3.4% | 28.9% ± 3.5% |  | 
COc1ccc(C2CC(=NNC(N)=S)c3c(O)cc(O)cc3O2)cc1O (stereo not drawn) [HTSC, N-[2,3-dihydro-5,7-dihydroxy-2-(3-hydroxy-4-methoxyphenyl)chromen-4-ylidene]thiosemicarbazide] | 13.5 ± 0.7 ^a,c % | 10.2 ± 2.0 ^a % |  |  |  | 32.8% ± 4.4% | 
N.N.[Cl][Pt][Cl] [cisplatin, reference compound] | 30.2 ± 3.4% | 26.5 ± 3.9% | 73.1% ± 3.3% |  |  |  | 
OO [hydrogen peroxide, reference compound] |  | 26.2% ± 4.6% | 54.1% ± 0.2% | 42.0% ± 3.6% |  |  | 50.3% ± 0.6%
